Laboratory results as given in the NIST ThermoML archive (doi:10.1016/j.jct.2018.06.026).
Numbers after ± are expanded uncertainties.

Key:
[1] = wn = mass fraction of the nth substance listed; settings: 100 kPa, Liquid, Vibrating tube method
[2] = refractive index (Na D-line) (dimensionless); wn = mass fraction of the nth substance listed; settings: 100 kPa, Liquid, Standard Abbe refractometry

mass density ([1]; 293.15 K, w1 = 0.265): 1200.01 ± 10 kg/m3
mass density ([1]; 313.15 K, w1 = 0.2717): 1181.06 ± 10 kg/m3
refractive index ([2]; 293.15 K, w1 = 0.265): 1.38027 ± 0.002
refractive index ([2]; 313.15 K, w1 = 0.2717): 1.37386 ± 0.002
SMILES: [Cl-].[Na+] [sodium chloride] + O
